Test results from patent publication EP2258713A1, “Antiviral Triterpene Derivatives” (priority 2009, dated 2010).
Where two headings read alike, the source gives them in different places.

Tests used:
MDCK cells [1] = assay: Cytotoxicity determination: cell viability of uninfected cells, CellTiter-Glo luminescent cell viability assay; conditions: 48 h; for Viability %: MDCK cells
H3N2 Influenza A Virus = type: cell-based
PKC and CK-I = conditions: 100 µM; cited from earlier work
MDCK cells [2] = conditions: dog, 48 h
[3] = test system: murine retinal ganglion cells; conditions: cited from earlier work
CK-2 = conditions: 30 µM; cited from earlier work
TNFα = assay: Expression of TNFα in cells (general statement, no data shown); type: cell-based; conditions: no values
Description: A person skilled in the art would be able to identify TNFα-downregulating compounds of the invention by contacting one or more cells with a compound of the invention and assaying for the presence of one TNFα and comparing the levels of TNFα in the one or more cells with that of controls. Such methods are known in the art and are described in the examples herein below.

| Compound | Viability % (MDCK cells [1]; 25 µM) | Viability % (MDCK cells [1]; 250 µM) | further results |
| --- | --- | --- | --- |
| CC1(C)[C@@H](NCCS[C@@H]2O[C@H](C(=O)O)[C@@H](O)[C@H](O)[C@H]2O)CC[C@]2(C)[C@H]3C(=O)C=C4[C@@H]5C[C@@](C)(C(=O)O)CC[C@]5(C)CC[C@@]4(C)[C@]3(C)CC[C@@H]12 [Compound 3, (3S,18R,20S)-3-[2-(β-D-glucopyranuronosylthio)-ethyl-amino]-11-oxo-olean-12-en-29-oic acid] | 103.5% | 105.5% | – |
| COC(=O)[C@H]1O[C@@H](SCCN(C(C)=O)[C@H]2CC[C@]3(C)[C@H]4C(=O)C=C5[C@@H]6C[C@@](C)(C(=O)O)CC[C@]6(C)CC[C@@]5(C)[C@]4(C)CC[C@H]3C2(C)C)[C@H](O)[C@@H](O)[C@@H]1O [Compound 4, (3S,18R,20S)-3-{N-Acetyl-N-[2-S-(methyl-1-thio-beta-D-glucopyranosyluronate)-ethyl]-amino}-11-oxo-olean-12-en-29-oic acid] | 104.4% | 99.4% | – |
| CC1(C)[C@@H](O[C@H]2O[C@H](C(=O)O)[C@@H](O)[C@H](O)[C@H]2O[C@@H]2O[C@H](C(=O)O)[C@@H](O)[C@H](O)[C@H]2O)CC[C@]2(C)[C@H]3C(=O)C=C4[C@@H]5C[C@@](C)(C(=O)O)CC[C@]5(C)CC[C@@]4(C)[C@]3(C)CC[C@@H]12 [Glycyrrhizin, glycyrrhizin, reference compound] | 100.9% | 105.3% | reduction of the CPE (cytopathic effect) (H3N2 Influenza A Virus): 57%; Viability % (MDCK cells [1]; 1500 µM): 101.7%; cell viability of uninfected treated cells versus uninfected untreated cells (MDCK cells [1]; 1.5 mM, uninfected MDCK cells): not significantly different; phosphorylation of HMGB1/2 by PKC and CK-I (PKC and CK-I): completely inhibits |
| CC(=O)N(CCS[C@@H]1O[C@H](C(=O)O)[C@@H](O)[C@H](O)[C@H]1O)[C@H]1CC[C@]2(C)[C@H]3C(=O)C=C4[C@@H]5C[C@@](C)(C(=O)O)CC[C@]5(C)CC[C@@]4(C)[C@]3(C)CC[C@H]2C1(C)C [Compound 5, (3S,18R,20S)-3-{N-Acetyl-N-[2-(beta-D-glucopyranuronosylthio)-ethyl]-amino}-11-oxo-olean-12-en-29-oic acid] | 106.6% | 93.5% | – |
| CC1(C)[C@@H](O)CC[C@]2(C)[C@H]3C(=O)C=C4[C@@H]5C[C@@](C)(C(=O)O)CC[C@]5(C)CC[C@@]4(C)[C@]3(C)CC[C@@H]12 [Glycyrrhetinic acid] | – | – | Viability % (MDCK cells [2]; 25 µM): 0.2%; Viability % (MDCK cells [2]; 250 µM): 0.0%; postsynaptic light response [3]: 30 % of control; phosphorylation of C3α by CK-2 (CK-2): completely inhibited |
| COC(=O)[C@H]1O[C@@H](SCCN[C@H]2CC[C@]3(C)[C@H]4C(=O)C=C5[C@@H]6C[C@@](C)(C(=O)O)CC[C@]6(C)CC[C@@]5(C)[C@]4(C)CC[C@H]3C2(C)C)[C@H](O)[C@@H](O)[C@@H]1O [Compound 2, (3S,18R,20S)-3-[2-S-(Methyl-1-thio-beta-D-glucopyranosyluronate)-ethyl-amino]-11-oxo-olean-12-en-29-oic acid] | 114.6% | 101.2% | – |
| COC(=O)CCC(=O)N(CCS[C@@H]1O[C@H](C(=O)OC)[C@@H](O)[C@H](O)[C@H]1O)[C@H]1CC[C@]2(C)[C@H]3C(=O)C=C4[C@@H]5C[C@@](C)(C(=O)O)CC[C@]5(C)CC[C@@]4(C)[C@]3(C)CC[C@H]2C1(C)C [Compound 6, (3S,18R,20S)-3-{N-(4-Methoxy-1,4-dioxobutyl)-N-[2-S-(methyl-1-thio-beta-D-glucopyranosyluronate)-ethyl]-amino}-11-oxo-olean-12-en-29-oic acid] | 107.3% | 106.3% | – |
| CON(C1OC(CO)C(O)C(O)C1O)C1CCC2(C)C(CCC3(C)C2C(=O)C=C2C4CC(C)(C(=O)O)CCC4(C)CCC23C)C1(C)C [Compound 1, (3S,18R,20S)-11-Oxo-3-[(beta-D-glucopyranosyl)methoxamino]-olean-12-en-29-oic acid] | – | – | cytopathic effect associated with virus replication in cell culture (H3N2 Influenza A Virus; general statement, no values): reduce the cytopathic effect; expression of TNFα (TNFα): inhibit the expression of TNFα |
